Data reported in PubChem BioAssay AID1963875 (Molecular Pharmacology Branch, DTP, NCI, 2024).
Where “and” joins values, the source holds several entries; their conditions need not be identical. Equal entries are not always repeated.

System: KRAS-mutant PDC complex spheroid viability
Assay: Anticancer human tumor 186277-243-T-J2-PDC patient-derived colon adenocarcinoma cell line growth inhibition [KRAS2]
Conditions: for viability, T/C: stronger effect = lower value
Description: Multicellular complex tumor spheroid response to RAS pathway inhibitors in combination with a targeted agents in patient-derived cell lines with oncogenic KRAS variants from multiple cancer types
A high-throughput screen of multi-cell type tumor spheroids was designed to identify active combinations of targeted small molecules and KRAS pathway inhibitors. Complex spheroids include a stromal component modeled by human endothelial cells (HUVEC) and fibroblasts modeled by human mesenchymal stem cells (MSCs). The concentration ranges selected for each drug and investigational agent were based upon clinically achievable concentrations if the clinical Cmax of the agent was known.
Compounds. The drugs and investigational agents: BI-3406 (NSC825286), BAY-293 (NSC824723), batoprotafib (TNO155; NSC825523), sotorasib (AMG 510; NSC818433), MRTX1257 (NSC819558), elimusertib (BAY 1895344; NSC800525), molibresib (GSK525762; NSC774829), temuterkib (LY3214996; NSC803410), venetoclax (NSC766270), alisertib (NSC759677), olaparib (NSC753686), talazoparib (NSC767125), erdafitinib (NSC781556), ipatasertib (NSC767898), cabozantinib (NSC761068), nintedanib (NSC756659), abemaciclib (NSC768073), docetaxel (NSC628503), trametinib (NSC758246), and sapanisertib (NSC764658) were obtained from the National Cancer Institute (NCI) Developmental Therapeutics Program Chemical Repository. The FDA-approved anticancer drug set is available from the Developmental Therapeutics Program. […] The stock solutions were prepared in dimethyl sulfoxide (DMSO, Sigma-Aldrich, St. Louis, MO, cat. D2650) at 800-fold the tested concentration and stored at -70 degrees C prior to their use. All drugs and investigational agents were tested over a range starting from a high concentration at or near the clinical Cmax and decreasing in half-log increments. If the clinical Cmax for an agent had not been determined, the highest concentration tested was 10 microM.
Cell Culture. All cells were maintained in an incubator at 37 degrees C and 5% CO2 with 95% humidity. The PDC lines were cultured according to standard operating procedures established by the NCI PDMR (https://pdmr.cancer.gov/sops/default.htm). Briefly, all PDCs were thawed and cultured in Matrigel-coated flasks prepared with a working solution of 1X Ham's F-12 nutrient mix, without supplementation (Invitrogen, Waltham, MA, cat. 11765054), 100 U/mL penicillin-streptomycin (Invitrogen, cat. 15140122), and 2.5% Matrigel (Corning Inc., Corning, NY, cat. 354248) for the first three passages. All PDCs were cultured in complete DMEM/F-12 media containing advanced DMEM/F-12 (Invitrogen, cat. 12634028), 4.9% defined fetal bovine serum, heat inactivated (HyClone Laboratories Inc., Logan, UT, cat. SH30070.03HI), 389 ng/mL hydrocortisone (Sigma-Aldrich, cat. H4001), 9.7 ng/mL human EGF recombinant protein (Invitrogen, cat. PHG0313), 23.4 microg/mL adenine (Sigma-Aldrich, cat. A2786), 97.3 U/mL penicillin-streptomycin (Invitrogen, cat. 15140122), 1.9 mM L-glutamine (Invitrogen, cat. 25030081), and 9.7 microM Y-27632 dihydrochloride (Tocris Bioscience, Bristol, United Kingdom, cat. 1254). The PDCs were cultured in complete DMEM/F12 media without 9.7 microM Y-27632 dihydrochloride for at least two passages prior to the screen. The established cell line HOP-62 was cultured in RPMI 1640 medium, HEPES (Invitrogen, cat. 22400105) with 10% defined fetal bovine serum (HyClone Laboratories Inc., cat. SH30070.03) and 2 mM L-glutamine (Invitrogen, cat. 25030081). The pooled donor HUVEC were cultured in endothelial cell growth medium 2 (PromoCell, Heidelberg, Germany, cat. C-22011) and the hMSC were cultured in mesenchymal stem cell growth medium 2 (PromoCell, cat. C-28009). For all experiments, HUVEC and hMSC were used at passages </=5, while the malignant cell lines were used at passages </=15. […]

[1] = curve of first compound, second compound 0.1 µM
[2] = curve of first compound, second compound 0.316 µM
[3] = curve of first compound, second compound 1 µM
[4] = curve of first compound, second compound 3.16 µM
[5] = second compound 0.1 µM, first compound 0.0316 µM
[6] = second compound 0.1 µM, first compound 0.1 µM
[7] = second compound 0.1 µM, first compound 0.316 µM
[8] = second compound 0.1 µM, first compound 1 µM
[9] = second compound 0.1 µM, first compound 3.16 µM
[10] = second compound 0.1 µM, first compound 10 µM
[11] = second compound 0.316 µM, first compound 0.0316 µM
[12] = second compound 0.316 µM, first compound 0.1 µM
[13] = second compound 0.316 µM, first compound 0.316 µM
[14] = second compound 0.316 µM, first compound 1 µM
[15] = second compound 0.316 µM, first compound 3.16 µM
[16] = second compound 0.316 µM, first compound 10 µM
[17] = second compound 1 µM, first compound 0.0316 µM
[18] = second compound 1 µM, first compound 0.1 µM
[19] = second compound 1 µM, first compound 0.316 µM
[20] = second compound 1 µM, first compound 1 µM
[21] = second compound 1 µM, first compound 3.16 µM
[22] = second compound 1 µM, first compound 10 µM
[23] = second compound 3.16 µM, first compound 0.0316 µM
[24] = second compound 3.16 µM, first compound 0.1 µM
[25] = second compound 3.16 µM, first compound 0.316 µM
[26] = second compound 3.16 µM, first compound 1 µM
[27] = second compound 3.16 µM, first compound 3.16 µM
[28] = second compound 3.16 µM, first compound 10 µM
[29] = curve of first compound, second compound 0.0316 µM
[30] = second compound 0.0316 µM, first compound 0.0316 µM
[31] = second compound 0.0316 µM, first compound 0.1 µM
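Throughout, for viability, T/C: viability read after seven days of compound exposure; 100% = DMSO vehicle-treated spheroids so lower means less viable.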

SMILES: CCNC(=O)CC1N=C(c2ccc(Cl)cc2)c2cc(OC)ccc2-n2c(C)nnc21 (stereo not given) + CC1OCC2(CCN(c3cnc(Sc4ccnc(N)c4Cl)c(N)n3)CC2)C1N
- IC50 [1]: 5830 nM
- IC50 [2]: 1050 nM
- IC50 [3]: 338 nM
- IC50 [4]: 155 nM
- IC50 (curve of first compound, second compound 10 µM): 51 nM
- viability, T/C [5]: 92.5%
- viability, T/C [6]: 104%
- viability, T/C [7]: 144%
- viability, T/C [8]: 92.7%
- viability, T/C [9]: 66%
- viability, T/C [10]: 37%
- viability, T/C [11]: 108%
- viability, T/C [12]: 121%
- viability, T/C [13]: 103%
- viability, T/C [14]: 50.6%
- viability, T/C [15]: 26.5%
- viability, T/C [16]: 16.8%
- viability, T/C [17]: 97.6%
- viability, T/C [18]: 128%
- viability, T/C [19]: 52.2%
- viability, T/C [20]: 16.2%
- viability, T/C [21]: 14%
- viability, T/C [22]: 8.15%
- viability, T/C [23]: 109%
- viability, T/C [24]: 67.8%
- viability, T/C [25]: 20.9%
- viability, T/C [26]: 7.45%
- viability, T/C [27]: 4.82%
- viability, T/C [28]: 4.45%
- viability, T/C (second compound 10 µM, first compound 0.0316 µM): 64.2%
- viability, T/C (second compound 10 µM, first compound 0.1 µM): 30%
- viability, T/C (second compound 10 µM, first compound 0.316 µM): 9.5%
- viability, T/C (second compound 10 µM, first compound 1 µM): 4.12%
- viability, T/C (second compound 10 µM, first compound 3.16 µM): 3.89%
- viability, T/C (second compound 10 µM, first compound 10 µM): 2.6%

SMILES: CN(C)C/C=C/C(=O)Nc1cc2c(Nc3ccc(F)c(Cl)c3)ncnc2cc1O[C@H]1CCOC1 + C=CC(=O)N1CCN(c2nc(OCC3CCCN3C)nc3c2CCN(c2cccc4cccc(C)c24)C3)CC1CC#N
- IC50 [29]: > 100 nM
- IC50 [1]: > 100 nM
- IC50 [2]: > 100 nM
- IC50 [3]: > 100 nM
- IC50 [4]: < 0.316 nM
- viability, T/C (second compound 0.0316 µM, first compound 0.000316 µM): 98.6%
- viability, T/C (second compound 0.0316 µM, first compound 0.001 µM): 106%
- viability, T/C (second compound 0.0316 µM, first compound 0.00316 µM): 100%
- viability, T/C (second compound 0.0316 µM, first compound 0.01 µM): 103%
- viability, T/C [30]: 118%
- viability, T/C [31]: 112%
- viability, T/C (second compound 0.1 µM, first compound 0.000316 µM): 109%
- viability, T/C (second compound 0.1 µM, first compound 0.001 µM): 95.5%
- viability, T/C (second compound 0.1 µM, first compound 0.00316 µM): 94%
- viability, T/C (second compound 0.1 µM, first compound 0.01 µM): 117%
- viability, T/C [5]: 110%
- viability, T/C [6]: 105%
- viability, T/C (second compound 0.316 µM, first compound 0.000316 µM): 102%
- viability, T/C (second compound 0.316 µM, first compound 0.001 µM): 102%
- viability, T/C (second compound 0.316 µM, first compound 0.00316 µM): 103%
- viability, T/C (second compound 0.316 µM, first compound 0.01 µM): 109%
- viability, T/C [11]: 111%
- viability, T/C [12]: 105%
- viability, T/C (second compound 1 µM, first compound 0.000316 µM): 94.6%
- viability, T/C (second compound 1 µM, first compound 0.001 µM): 94.5%
- viability, T/C (second compound 1 µM, first compound 0.00316 µM): 112%
- viability, T/C (second compound 1 µM, first compound 0.01 µM): 106%
- viability, T/C [17]: 98.7%
- viability, T/C [18]: 105%
- viability, T/C (second compound 3.16 µM, first compound 0.000316 µM): 0.97%
- viability, T/C (second compound 3.16 µM, first compound 0.001 µM): 0.41%
- viability, T/C (second compound 3.16 µM, first compound 0.00316 µM): 0.31%
- viability, T/C (second compound 3.16 µM, first compound 0.01 µM): 0.31%
- viability, T/C [23]: 0.23%
- viability, T/C [24]: 0.38%

SMILES: C=CC(=O)N1CCN(c2nc(=O)n(-c3c(C)ccnc3C(C)C)c3nc(-c4c(O)cccc4F)c(F)cc23)C(C)C1 (stereo not given)
- viability, T/C (compound 0.1 µM): 98.1% [middle of 17 runs]
- viability, T/C (compound 1 µM): 96.4% [middle of 17 runs]
- IC50 (compound alone, run of 07/12/2021): > 10000 nM and 9920 nM and 2890 nM
- IC50 (compound alone, run of 07/19/2021): > 10000 nM and 8520 nM
- IC50 (compound alone, run of 07/26/2021): > 10000 nM

SMILES: CC1(C)CCC(CN2CCN(c3ccc(C(=O)NS(=O)(=O)c4ccc(NCC5CCOCC5)c([N+](=O)[O-])c4)c(Oc4cnc5[nH]ccc5c4)c3)CC2)=C(c2ccc(Cl)cc2)C1 + C=CC(=O)N1CCN(c2nc(OCC3CCCN3C)nc3c2CCN(c2cccc4cccc(C)c24)C3)CC1CC#N
- IC50 [29]: 2130 nM
- IC50 [1]: 2240 nM
- IC50 [2]: 1950 nM
- IC50 [3]: 1770 nM
- IC50 [4]: < 31.6 nM
- viability, T/C [30]: 101%
- viability, T/C [31]: 107%
- viability, T/C (second compound 0.0316 µM, first compound 0.316 µM): 110%
- viability, T/C (second compound 0.0316 µM, first compound 1 µM): 117%
- viability, T/C (second compound 0.0316 µM, first compound 3.16 µM): 19.4%
- viability, T/C (second compound 0.0316 µM, first compound 10 µM): 3.14%
- viability, T/C [5]: 115%
- viability, T/C [6]: 105%
- viability, T/C [7]: 112%
- viability, T/C [8]: 108%
- viability, T/C [9]: 25%
- viability, T/C [10]: 4.15%
- viability, T/C [11]: 114%
- viability, T/C [12]: 108%
- viability, T/C [13]: 97.8%
- viability, T/C [14]: 105%
- viability, T/C [15]: 10.8%
- viability, T/C [16]: 0.82%
- viability, T/C [17]: 119%
- viability, T/C [18]: 101%
- viability, T/C [19]: 115%
- viability, T/C [20]: 98.2%
- viability, T/C [21]: 0.67%
- viability, T/C [22]: 0.35%
- viability, T/C [23]: 0.28%
- viability, T/C [24]: 1.07%
- viability, T/C [25]: 0.22%
- viability, T/C [26]: 0.18%
- viability, T/C [27]: 0.13%
- viability, T/C [28]: 0.17%
